Laboratory results published in paper PMC3694096, “Development of Novel In Vivo Chemical Probes to Address CNS Protein Kinase Involvement in Synaptic Dysfunction” (PLoS ONE, 2013).
Read-outs that look alike come from different tables or passages of the source.

Assays:
MST3 = molecular target: T1, MST3 (Homo sapiens, UniProt Q9Y6E0); experiment: Kinome profiler screen; format: biochemical; details: at 20,000 nM inhibitor; kinase activity remaining
T1 construct: purchased Millipore KinaseProfiler

CaMKIV = molecular target: T2, CaMKIV (Homo sapiens, UniProt Q16566); experiment: Kinome profiler screen; format: biochemical; details: at 20,000 nM inhibitor; kinase activity remaining
T2 construct: purchased Millipore KinaseProfiler

EphB2 = molecular target: T3, EphB2 (Homo sapiens, UniProt P29323); experiment: Kinome profiler screen; format: biochemical; details: for activity at 20 µM: at 20,000 nM inhibitor, kinase activity remaining
T3 construct: purchased Millipore
T3 sequence (P29323 19-1055): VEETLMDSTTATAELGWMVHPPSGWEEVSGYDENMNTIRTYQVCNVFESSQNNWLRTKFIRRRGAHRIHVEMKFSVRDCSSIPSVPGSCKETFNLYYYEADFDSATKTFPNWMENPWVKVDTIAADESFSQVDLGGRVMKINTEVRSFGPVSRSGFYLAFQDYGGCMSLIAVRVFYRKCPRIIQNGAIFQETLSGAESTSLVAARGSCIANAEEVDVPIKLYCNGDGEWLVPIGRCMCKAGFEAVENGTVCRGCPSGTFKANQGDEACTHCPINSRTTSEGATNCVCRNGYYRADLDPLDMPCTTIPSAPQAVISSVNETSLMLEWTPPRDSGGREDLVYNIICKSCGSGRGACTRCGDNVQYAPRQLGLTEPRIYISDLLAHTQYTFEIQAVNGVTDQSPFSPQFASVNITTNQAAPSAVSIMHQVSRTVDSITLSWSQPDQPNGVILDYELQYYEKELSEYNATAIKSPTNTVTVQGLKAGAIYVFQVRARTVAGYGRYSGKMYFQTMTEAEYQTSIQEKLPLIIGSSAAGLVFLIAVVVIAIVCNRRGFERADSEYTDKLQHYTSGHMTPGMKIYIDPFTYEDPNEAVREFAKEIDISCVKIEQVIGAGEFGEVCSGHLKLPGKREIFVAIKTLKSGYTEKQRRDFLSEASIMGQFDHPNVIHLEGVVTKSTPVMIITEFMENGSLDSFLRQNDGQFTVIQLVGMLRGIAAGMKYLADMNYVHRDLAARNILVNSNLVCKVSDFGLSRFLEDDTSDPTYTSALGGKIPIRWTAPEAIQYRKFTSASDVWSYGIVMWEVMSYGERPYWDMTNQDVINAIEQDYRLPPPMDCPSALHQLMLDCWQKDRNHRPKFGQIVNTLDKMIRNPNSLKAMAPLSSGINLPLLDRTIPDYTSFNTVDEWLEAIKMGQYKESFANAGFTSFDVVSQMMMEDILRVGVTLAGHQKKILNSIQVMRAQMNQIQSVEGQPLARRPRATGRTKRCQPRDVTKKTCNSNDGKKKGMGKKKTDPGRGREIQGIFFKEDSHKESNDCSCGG

EGFR = molecular target: T4, EGFR (Homo sapiens, UniProt P00533); experiment: Kinome profiler screen; format: biochemical; details: at 20,000 nM inhibitor; kinase activity remaining
T4 construct: purchased Millipore KinaseProfiler

CaMKIIβ = molecular target: T5, CaMKIIβ (Homo sapiens, UniProt Q13554); experiment: Kinome profiler screen; format: biochemical; details: at 20,000 nM inhibitor; kinase activity remaining
T5 construct: purchased Millipore KinaseProfiler

mTOR/FKBP12 = molecular target: T6, mTOR/FKBP12 (Homo sapiens, UniProt P42345); experiment: Kinome profiler screen; format: biochemical; details: at 20,000 nM inhibitor; kinase activity remaining
T6 construct: purchased Millipore KinaseProfiler

EphA8 = molecular target: T7, EphA8 (Homo sapiens, UniProt P29322); experiment: Kinome profiler screen; format: biochemical; details: at 20,000 nM inhibitor; kinase activity remaining
T7 construct: purchased Millipore KinaseProfiler

EphB4 = molecular target: T8, EphB4 (Homo sapiens, UniProt P54760); experiment: Kinome profiler screen; format: biochemical; details: at 20,000 nM inhibitor; kinase activity remaining
T8 construct: purchased Millipore KinaseProfiler

FGFR2(N549H) = molecular target: T9, FGFR2(N549H) (Homo sapiens, UniProt P21802, N549H); experiment: Kinome profiler screen; format: biochemical; details: at 20,000 nM inhibitor; kinase activity remaining
T9 construct: purchased Millipore KinaseProfiler

Pyk2 = molecular target: T10, Pyk2 (Homo sapiens, UniProt Q14289); experiment: Kinome profiler screen; format: biochemical; details: at 20,000 nM inhibitor; kinase activity remaining
T10 construct: purchased Millipore KinaseProfiler

CDK9/cyclin T1 = molecular target: T11, CDK9/cyclin T1 (Homo sapiens, UniProt P50750); experiment: Kinome profiler screen; format: biochemical; details: at 20,000 nM inhibitor; kinase activity remaining
T11 construct: purchased Millipore KinaseProfiler

Rsk3 = molecular target: T12, Rsk3 (Homo sapiens, UniProt Q15349); experiment: Kinome profiler screen; format: biochemical; details: at 20,000 nM inhibitor; kinase activity remaining
T12 construct: purchased Millipore KinaseProfiler

Blk(m) = molecular target: T13, Blk(m) (Mus musculus, UniProt P16277); experiment: Kinome profiler screen; format: biochemical; details: at 20,000 nM inhibitor; kinase activity remaining
T13 construct: purchased Millipore KinaseProfiler

Flt4 = molecular target: T14, Flt4 (Homo sapiens, UniProt P35916); experiment: Kinome profiler screen; format: biochemical; details: for activity at 20 µM: at 20,000 nM inhibitor, kinase activity remaining
T14 construct: purchased Millipore

GRK7 = molecular target: T15, GRK7 (Homo sapiens, UniProt Q8WTQ7); experiment: Kinome profiler screen; format: biochemical
T15 construct: purchased Millipore KinaseProfiler

TrkA = molecular target: T16, TrkA (Homo sapiens, UniProt P04629); experiment: Kinome profiler screen; format: biochemical
T16 construct: purchased Millipore KinaseProfiler

MINK = molecular target: T17, MINK (Homo sapiens, UniProt Q8N4C8); experiment: Kinome profiler screen; format: biochemical; details: at 20,000 nM inhibitor; kinase activity remaining
T17 construct: purchased Millipore KinaseProfiler

MKK4(m) = molecular target: T18, MKK4(m) (Mus musculus, UniProt P47809); experiment: Kinome profiler screen; format: biochemical; details: at 20,000 nM inhibitor; kinase activity remaining
T18 construct: purchased Millipore KinaseProfiler

SIK = molecular target: T19, SIK (Homo sapiens, UniProt P57059); experiment: Kinome profiler screen; format: biochemical; details: at 20,000 nM inhibitor; kinase activity remaining
T19 construct: purchased Millipore KinaseProfiler

FGFR4 = molecular target: T20, FGFR4 (Homo sapiens, UniProt P22455); experiment: Kinome profiler screen; format: biochemical; details: at 20,000 nM inhibitor; kinase activity remaining
T20 construct: purchased Millipore KinaseProfiler

CK1γ2 = molecular target: T21, CK1γ2 (Homo sapiens, UniProt P78368); experiment: Kinome profiler screen; format: biochemical; details: at 20,000 nM inhibitor; kinase activity remaining
T21 construct: purchased Millipore KinaseProfiler

[1] = molecular target: T22, PI3 Kinase (p110 β/p85β)(m) (Mus musculus, UniProt Q8BTI9); experiment: Kinome profiler screen; format: biochemical; details: at 20,000 nM inhibitor; kinase activity remaining
T22 construct: purchased Millipore KinaseProfiler

ALK4 = molecular target: T23, ALK4 (Homo sapiens, UniProt P36896); experiment: Kinome profiler screen; format: biochemical; details: at 20,000 nM inhibitor; kinase activity remaining
T23 construct: purchased Millipore KinaseProfiler

CK1δ = molecular target: T24, CK1δ (Homo sapiens, UniProt P48730); experiment: Kinome profiler screen; format: biochemical
T24 construct: purchased Millipore

MKK7β = molecular target: T25, MKK7β (Homo sapiens, UniProt O14733); experiment: Kinome profiler screen; format: biochemical; details: at 20,000 nM inhibitor; kinase activity remaining
T25 construct: purchased Millipore KinaseProfiler

p70S6K = molecular target: T26, p70S6K (Homo sapiens, UniProt P23443); experiment: Kinome profiler screen; format: biochemical; details: at 20,000 nM inhibitor; kinase activity remaining
T26 construct: purchased Millipore KinaseProfiler

[2] = tested on: sensory perception of electric shock; experiment: Sensory threshold assessment; format: in vivo, C57BL/6J mice; details: control test
Aurora-C = molecular target: T27, Aurora-C (Homo sapiens, UniProt Q9UQB9); experiment: Kinome profiler screen; format: biochemical; details: at 20,000 nM inhibitor; kinase activity remaining
T27 construct: purchased Millipore KinaseProfiler

[3] = tested on: PI3 Kinase (p110α (H1047R)/p85α); experiment: Kinome profiler screen; format: biochemical; details: at 20,000 nM inhibitor; kinase activity remaining
panel of 158 GPCRs = experiment: Functional GPCR agonist and antagonist screen (calcium flux FLIPR); format: cell-based; details: outcome in words
[4] = at 20,000 nM inhibitor, kinase activity remaining, read-out: % Activity

T14 sequence (P35916 25-1363): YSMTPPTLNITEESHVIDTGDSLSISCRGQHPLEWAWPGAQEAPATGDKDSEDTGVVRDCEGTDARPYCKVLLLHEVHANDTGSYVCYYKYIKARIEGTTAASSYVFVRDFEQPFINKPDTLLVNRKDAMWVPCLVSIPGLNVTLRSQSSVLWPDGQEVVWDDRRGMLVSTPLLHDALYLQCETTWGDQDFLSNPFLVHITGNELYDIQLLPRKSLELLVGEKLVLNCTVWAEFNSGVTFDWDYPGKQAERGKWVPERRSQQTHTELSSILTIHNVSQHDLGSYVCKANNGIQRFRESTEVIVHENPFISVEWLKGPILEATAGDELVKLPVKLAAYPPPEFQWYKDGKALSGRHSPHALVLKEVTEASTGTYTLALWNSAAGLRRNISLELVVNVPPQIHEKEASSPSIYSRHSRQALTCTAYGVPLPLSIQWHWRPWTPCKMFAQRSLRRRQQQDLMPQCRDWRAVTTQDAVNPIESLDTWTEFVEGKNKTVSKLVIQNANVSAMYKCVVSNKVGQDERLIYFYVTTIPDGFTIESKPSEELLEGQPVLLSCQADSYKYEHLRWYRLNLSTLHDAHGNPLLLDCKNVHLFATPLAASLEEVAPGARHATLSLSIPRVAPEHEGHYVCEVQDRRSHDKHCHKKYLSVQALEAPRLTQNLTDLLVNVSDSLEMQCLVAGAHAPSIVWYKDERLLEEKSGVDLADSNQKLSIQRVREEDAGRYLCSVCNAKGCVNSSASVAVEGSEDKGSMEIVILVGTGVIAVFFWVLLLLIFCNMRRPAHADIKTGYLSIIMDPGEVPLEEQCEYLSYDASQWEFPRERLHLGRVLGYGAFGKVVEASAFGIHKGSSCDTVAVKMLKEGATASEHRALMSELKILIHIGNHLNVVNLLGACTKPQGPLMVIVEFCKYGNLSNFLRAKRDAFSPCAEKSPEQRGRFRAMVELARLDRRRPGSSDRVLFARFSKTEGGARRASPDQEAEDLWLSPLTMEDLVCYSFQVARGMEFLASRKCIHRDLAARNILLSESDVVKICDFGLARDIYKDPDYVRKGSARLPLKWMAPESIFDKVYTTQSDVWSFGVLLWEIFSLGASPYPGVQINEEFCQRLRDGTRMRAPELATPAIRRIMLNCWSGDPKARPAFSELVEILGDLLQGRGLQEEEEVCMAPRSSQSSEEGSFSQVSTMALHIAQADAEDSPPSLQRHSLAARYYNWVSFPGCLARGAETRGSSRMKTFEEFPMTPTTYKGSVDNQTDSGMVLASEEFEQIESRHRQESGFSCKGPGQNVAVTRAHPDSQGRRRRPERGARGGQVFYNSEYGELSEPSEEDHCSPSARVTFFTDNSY
T25 sequence (O14733 whole entry): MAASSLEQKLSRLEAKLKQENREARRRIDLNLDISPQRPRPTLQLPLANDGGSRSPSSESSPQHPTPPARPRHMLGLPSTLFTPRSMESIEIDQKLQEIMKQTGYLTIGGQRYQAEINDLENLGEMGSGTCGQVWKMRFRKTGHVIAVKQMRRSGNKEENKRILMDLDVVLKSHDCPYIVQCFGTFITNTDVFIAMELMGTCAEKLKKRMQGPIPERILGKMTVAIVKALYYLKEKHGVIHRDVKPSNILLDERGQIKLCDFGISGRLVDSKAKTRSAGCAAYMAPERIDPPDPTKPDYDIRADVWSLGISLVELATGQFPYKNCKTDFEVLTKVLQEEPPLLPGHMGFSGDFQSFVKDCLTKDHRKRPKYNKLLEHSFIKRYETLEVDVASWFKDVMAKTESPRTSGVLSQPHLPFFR
T12 sequence (Q15349 whole entry): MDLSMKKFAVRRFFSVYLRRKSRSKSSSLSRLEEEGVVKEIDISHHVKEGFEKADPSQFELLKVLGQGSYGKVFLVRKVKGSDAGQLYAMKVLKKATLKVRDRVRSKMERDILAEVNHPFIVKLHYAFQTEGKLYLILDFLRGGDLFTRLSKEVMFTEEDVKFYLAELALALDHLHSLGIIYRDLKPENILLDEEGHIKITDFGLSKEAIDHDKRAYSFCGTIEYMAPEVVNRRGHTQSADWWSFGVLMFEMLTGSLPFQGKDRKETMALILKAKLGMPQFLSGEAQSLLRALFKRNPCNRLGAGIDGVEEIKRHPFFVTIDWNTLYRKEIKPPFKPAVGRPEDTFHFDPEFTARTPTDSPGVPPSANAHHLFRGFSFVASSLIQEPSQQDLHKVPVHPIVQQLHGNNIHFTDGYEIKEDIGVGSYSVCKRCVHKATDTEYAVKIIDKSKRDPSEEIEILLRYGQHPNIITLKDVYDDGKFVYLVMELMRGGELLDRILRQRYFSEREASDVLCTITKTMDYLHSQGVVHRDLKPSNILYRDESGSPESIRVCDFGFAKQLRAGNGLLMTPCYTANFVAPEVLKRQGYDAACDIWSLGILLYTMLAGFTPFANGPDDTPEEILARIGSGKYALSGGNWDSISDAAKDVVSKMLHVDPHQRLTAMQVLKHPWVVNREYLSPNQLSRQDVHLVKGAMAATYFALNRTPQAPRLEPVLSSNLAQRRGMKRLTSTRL
T21 sequence (P78368 whole entry): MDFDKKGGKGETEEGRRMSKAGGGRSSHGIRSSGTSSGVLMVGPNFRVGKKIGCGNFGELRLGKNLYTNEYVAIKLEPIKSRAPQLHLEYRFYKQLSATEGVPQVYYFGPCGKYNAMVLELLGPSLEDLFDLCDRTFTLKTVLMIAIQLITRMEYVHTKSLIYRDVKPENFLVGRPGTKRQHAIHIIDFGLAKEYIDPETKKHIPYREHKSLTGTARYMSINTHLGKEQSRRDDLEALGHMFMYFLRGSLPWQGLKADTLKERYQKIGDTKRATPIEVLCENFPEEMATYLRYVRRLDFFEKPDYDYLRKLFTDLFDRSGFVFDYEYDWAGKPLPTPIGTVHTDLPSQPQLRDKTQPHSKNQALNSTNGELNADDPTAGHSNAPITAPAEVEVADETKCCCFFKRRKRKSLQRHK
T20 sequence (P22455 22-802): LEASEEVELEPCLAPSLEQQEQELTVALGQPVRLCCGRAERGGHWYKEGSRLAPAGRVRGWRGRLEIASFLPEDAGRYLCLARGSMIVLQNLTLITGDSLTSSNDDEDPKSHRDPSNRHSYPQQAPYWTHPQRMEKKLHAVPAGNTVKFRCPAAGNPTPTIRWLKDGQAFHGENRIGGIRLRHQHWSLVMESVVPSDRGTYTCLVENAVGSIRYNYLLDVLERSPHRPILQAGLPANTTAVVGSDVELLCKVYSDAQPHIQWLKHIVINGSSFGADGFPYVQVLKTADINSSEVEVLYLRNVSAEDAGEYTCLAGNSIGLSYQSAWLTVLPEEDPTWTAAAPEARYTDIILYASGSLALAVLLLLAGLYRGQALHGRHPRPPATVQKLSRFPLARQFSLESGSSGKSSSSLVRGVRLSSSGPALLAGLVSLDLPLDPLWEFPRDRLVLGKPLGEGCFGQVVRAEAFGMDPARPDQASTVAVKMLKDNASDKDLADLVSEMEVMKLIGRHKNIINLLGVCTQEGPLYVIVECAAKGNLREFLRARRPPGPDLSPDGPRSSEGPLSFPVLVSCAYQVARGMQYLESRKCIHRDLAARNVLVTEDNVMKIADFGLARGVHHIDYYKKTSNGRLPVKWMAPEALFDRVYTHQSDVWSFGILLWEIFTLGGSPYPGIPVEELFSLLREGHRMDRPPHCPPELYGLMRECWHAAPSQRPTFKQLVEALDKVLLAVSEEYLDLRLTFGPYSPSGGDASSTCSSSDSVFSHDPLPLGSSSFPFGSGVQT
T5 sequence (Q13554 whole entry): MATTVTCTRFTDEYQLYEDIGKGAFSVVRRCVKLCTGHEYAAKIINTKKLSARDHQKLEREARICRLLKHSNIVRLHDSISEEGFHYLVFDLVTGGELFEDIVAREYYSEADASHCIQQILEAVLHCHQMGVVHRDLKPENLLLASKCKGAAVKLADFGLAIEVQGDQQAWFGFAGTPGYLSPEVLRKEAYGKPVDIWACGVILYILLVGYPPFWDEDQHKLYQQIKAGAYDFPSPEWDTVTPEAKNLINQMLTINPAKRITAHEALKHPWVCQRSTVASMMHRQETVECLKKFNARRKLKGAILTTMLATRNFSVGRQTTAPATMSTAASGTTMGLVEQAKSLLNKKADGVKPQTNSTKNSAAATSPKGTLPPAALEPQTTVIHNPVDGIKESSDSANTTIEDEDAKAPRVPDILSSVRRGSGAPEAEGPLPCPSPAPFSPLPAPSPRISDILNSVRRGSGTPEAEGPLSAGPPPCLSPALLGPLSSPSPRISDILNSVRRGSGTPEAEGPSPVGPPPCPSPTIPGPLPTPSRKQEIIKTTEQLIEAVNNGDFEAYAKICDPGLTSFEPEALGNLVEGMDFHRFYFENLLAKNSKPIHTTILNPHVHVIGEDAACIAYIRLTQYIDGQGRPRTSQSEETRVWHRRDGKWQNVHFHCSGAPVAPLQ
T2 sequence (Q16566 whole entry): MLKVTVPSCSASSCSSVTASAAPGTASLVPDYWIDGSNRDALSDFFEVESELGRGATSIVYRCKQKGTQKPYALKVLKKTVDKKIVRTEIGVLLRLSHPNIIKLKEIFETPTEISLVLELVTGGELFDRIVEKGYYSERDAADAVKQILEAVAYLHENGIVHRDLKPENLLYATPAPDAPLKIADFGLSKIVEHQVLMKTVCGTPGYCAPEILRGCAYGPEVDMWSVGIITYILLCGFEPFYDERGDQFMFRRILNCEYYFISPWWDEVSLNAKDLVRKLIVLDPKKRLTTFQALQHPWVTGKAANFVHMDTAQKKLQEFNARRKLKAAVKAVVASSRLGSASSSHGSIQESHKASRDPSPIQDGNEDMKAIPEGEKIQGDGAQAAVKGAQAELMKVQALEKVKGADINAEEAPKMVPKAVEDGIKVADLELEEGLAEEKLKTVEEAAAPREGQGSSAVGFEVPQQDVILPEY

Row | SMILES | activity at 20 µM (MST3) | activity at 20 µM (CaMKIV) | activity at 20 µM (EphB2) | activity at 20 µM (EGFR) | activity at 20 µM (CaMKIIβ) | activity at 20 µM (mTOR/FKBP12) | activity at 20 µM (EphA8) | activity at 20 µM (EphB4) | activity at 20 µM (FGFR2(N549H)) | activity at 20 µM (Pyk2) | activity at 20 µM (CDK9/cyclin T1) | activity at 20 µM (Rsk3) | activity at 20 µM (Blk(m)) | activity at 20 µM (Flt4) | activity at 20 µM (MINK) | activity at 20 µM (MKK4(m)) | activity at 20 µM (SIK) | activity at 20 µM (FGFR4) | activity at 20 µM (CK1γ2) | activity at 20 µM [1] | also measured
1 | CN(C)c1cc(-c2ccncc2)c(-c2cccc3ccccc23)nn1 [MW181, N,N-dimethyl-6-(naphthalen-1-yl)-5-(pyridin-4-yl)pyridazin-3-amine] | 98% | 105% | 92% | 103% | 108% | 96% | 91% | 100% | 96% | 101% | 104% | 114% | 100% | 98% | 54% | 91% | 92% | 98% | 96% | 100% | activity at 20 µM (GRK7; [4]): 102%; activity at 20 µM (TrkA; [4]): 109%; activity at 20 µM (ALK4): 101%; activity at 20 µM (CK1δ): 89%; activity at 20 µM (MKK7β): 116%; activity at 20 µM (p70S6K): 94%; sensory threshold [2]: Sensory threshold was not affected regardless of treatment
2 | CN(C)c1cc(-c2ccncc2)c(-c2ccc3ccccc3c2)nn1 [MW108, N, N-dimethyl-6-(naphthalen-2-yl)-5-(pyridin-4-yl)pyridazin-3-amine] | 98% | 100% | 36% | 79% | 96% | 100% | 95% | 54% | 76% | 106% | 95% | 83% | 88% | 11% | 48% | 108% | 91% | 89% | 91% | 101% | activity at 20 µM (Aurora-C): 113%; % Activity [3]: 99%; IC50 (EphB2): 16.2 µM; IC50 (Flt4): 4.91 µM; Functional GPCR Agonist and Antagonist Screen (panel of 158 GPCRs): negative; activity at 20 µM (GRK7): 98%; activity at 20 µM (TrkA): 91%; activity at 20 µM (ALK4): 95%; activity at 20 µM (CK1δ): 33%; activity at 20 µM (MKK7β): 122%; activity at 20 µM (p70S6K): 92%; sensory threshold [2]: Sensory threshold was not affected regardless of treatment
